Values after ≈ are worked out from the molar mass of the structure shown. Read-outs that look alike come from different tables or passages of the source.
Key:
Format in all cases: cell-based
[1] = tested on: S. pneumoniae; experiment: MIC and MBC:MIC ratio, recent ocular isolates; conditions: S. pneumoniae (N = 35)
[2] = tested on: Staphylococcus aureus; experiment: MIC, CLSI broth microdilution, clinical isolates; conditions: for MIC50 / MIC90: Staphylococcus aureus
[3] = tested on: Staphylococcus epidermidis; experiment: MIC, CLSI broth microdilution, clinical isolates; conditions: for MIC50: Staphylococcus epidermidis
[4] = tested on: Staphylococcus lugdunensis; experiment: MIC, CLSI broth microdilution, clinical isolates; conditions: Staphylococcus lugdunensis (N = 15)
[5] = tested on: Staphylococcus saprophyticus; experiment: MIC, CLSI broth microdilution, clinical isolates; conditions: Staphylococcus saprophyticus (N = 101)
[6] = tested on: Staphylococcus haemolyticus; experiment: MIC, CLSI broth microdilution, clinical isolates; conditions: Staphylococcus haemolyticus (N = 101)
[7] = tested on: Staphylococcus warneri; experiment: MIC, CLSI broth microdilution, clinical isolates; conditions: Staphylococcus warneri (N = 50)
[8] = tested on: Staphylococcus hominis; experiment: MIC, CLSI broth microdilution, clinical isolates; conditions: Staphylococcus hominis (N = 50)
[9] = tested on: Streptococcus agalactiae; experiment: MIC, CLSI broth microdilution, clinical isolates; conditions: Streptococcus agalactiae (N = 100)
[10] = tested on: Streptococcus pneumoniae; experiment: MIC, CLSI broth microdilution, clinical isolates
[11] = tested on: Streptococcus pyogenes; experiment: MIC, CLSI broth microdilution, clinical isolates; conditions: Streptococcus pyogenes (N = 101)
[12] = tested on: Lancefield group C, F, G streptococci; experiment: MIC, CLSI broth microdilution, clinical isolates; conditions: G streptococci (N = 50)
[13] = tested on: Viridans streptococci; experiment: MIC, CLSI broth microdilution, clinical isolates; conditions: Viridans streptococci (N = 156)
[14] = tested on: Citrobacter koseri; experiment: MIC, CLSI broth microdilution, clinical isolates; conditions: Citrobacter koseri (N = 100)
[15] = tested on: Klebsiella oxytoca; experiment: MIC, CLSI broth microdilution, clinical isolates; conditions: Klebsiella oxytoca (N = 50)
[16] = tested on: Haemophilus influenzae; experiment: MIC, CLSI broth microdilution, clinical isolates; conditions: for MIC50 / MIC90: Haemophilus influenzae
[17] = tested on: Legionella pneumophila; experiment: microbe, parasite or virus in culture
[18] = tested on: Moraxella catarrhalis; experiment: MIC, CLSI broth microdilution, clinical isolates; conditions: Moraxella catarrhalis (N = 101)
[19] = tested on: Morganella morganii; experiment: MIC, CLSI broth microdilution, clinical isolates; conditions: Morganella morganii (N = 51)
[20] = tested on: S. aureus; experiment: MIC of clinical trial isolates, Studies 373, 433, 434; conditions: Staphylococcus aureus
[21] = tested on: S. epidermidis; experiment: as above; conditions: Staphylococcus epidermidis
[22] = Streptococcus pneumoniae, recent ocular isolates
[23] = Staphylococcus aureus (CNS, N = 16)
[24] = Staphylococcus aureus (CS, N = 14)
[25] = Staphylococcus aureus (all phenotypes, N = 30)
[26] = MRSA, Staphylococcus aureus (MRSA, N = 11)
[27] = MSSA, Staphylococcus aureus (MSSA, N = 19)
[28] = Staphylococcus epidermidis (CNS, N = 6)
[29] = Staphylococcus epidermidis (CS, N = 9)
[30] = Staphylococcus epidermidis (MSSE, N = 6)
[31] = Staphylococcus epidermidis (all phenotypes, N = 15)
[32] = Streptococcus pneumoniae (PSSP, N = 31)
[33] = Haemophilus influenzae (all phenotypes, N = 40)
[34] = Haemophilus influenzae (bla negative, N = 24)
[35] = Haemophilus influenzae (bla positive, N = 16)

N[C@@H]1CCCCN(c2c(F)cc3c(=O)c(C(=O)O)cn(C4CC4)c3c2Cl)C1 [Besifloxacin, (R)-(+)-(3-amino-2,3,4,5,6,7-hexahydro-1H-azepin-1-yl)-8-chloro-1-cyclopropyl-6-fluoro-1,4,-dihydro-4-oxo-3-quinolinecarboxylic acid]
% of isolates with MBC:MIC ratio 1 [1]: 60.0% | % of isolates with MBC:MIC ratio 2 [1]: 37.1% | % of isolates with MBC:MIC ratio 4 [1]: 2.9% | % of isolates with MBC:MIC ratio 8 [1]: 0.0% | % of isolates with MBC:MIC ratio ≧16 [1]: 0.0% | MIC Range ([1]; recent ocular isolates): 0.015 to 0.5 µg/mL | MIC50 [1, 22]: 0.06 µg/mL | MIC90 [1, 22]: 0.06 µg/mL | MIC Range [2, 23]: 0.03 to 4 µg/mL | MIC Range [2, 24]: 0.015 to 0.25 µg/mL | MIC Range ([2]; Staphylococcus aureus (MRSA, N = 11)): 0.015 to 4 µg/mL | MIC Range ([2]; Staphylococcus aureus (MSSA, N = 19)): 0.015 to 4 µg/mL | MIC Range [2, 25]: 0.015 to 4 µg/mL | MIC50 [2, 26]: 0.5 µg/mL (≈ 1.27 µM) | MIC90 [2, 26]: 4 µg/mL (≈ 10.2 µM) | MIC50 [2, 27]: 0.015 µg/mL (≈ 0.0381 µM) | MIC90 [2, 27]: 0.25 µg/mL (≈ 0.635 µM) | MIC50 [2, 23]: 0.25 µg/mL (≈ 0.635 µM) | MIC90 [2, 23]: 4 µg/mL (≈ 10.2 µM) | MIC50 [2, 24]: 0.015 µg/mL (≈ 0.0381 µM) | MIC90 [2, 24]: 0.12 µg/mL (≈ 0.305 µM) | MIC50 [2, 25]: 0.12 µg/mL (≈ 0.305 µM) | MIC90 [2, 25]: 4 µg/mL (≈ 10.2 µM) | MIC Range [3, 28]: 0.25 to 4 µg/mL | MIC Range [3, 29]: 0.015 to 0.03 µg/mL | MIC Range ([3]; Staphylococcus epidermidis (MRSE, N = 9)): 0.015 to 4 µg/mL | MIC Range [3, 30]: 0.015 to 0.25 µg/mL | MIC90 [3, 31]: 4 µg/mL (≈ 10.2 µM) | MIC Range [3, 31]: 0.015 to 4 µg/mL | MIC50 ([3]; MRSE, Staphylococcus epidermidis (MRSE, N = 9)): 0.25 µg/mL (≈ 0.635 µM) | MIC50 [3, 28]: 0.25 µg/mL (≈ 0.635 µM) | MIC50 [3, 29]: 0.03 µg/mL (≈ 0.0762 µM) | MIC50 [3, 30]: 0.03 µg/mL (≈ 0.0762 µM) | MIC50 [3, 31]: 0.03 µg/mL (≈ 0.0762 µM) | MIC50 [4]: 0.06 µg/mL (≈ 0.152 µM) | MIC90 [4]: 0.5 µg/mL (≈ 1.27 µM) | MIC Range [4]: 0.015 to 2 µg/mL | MIC50 [5]: 0.06 µg/mL (≈ 0.152 µM) | MIC90 [5]: 0.12 µg/mL (≈ 0.305 µM) | MIC Range [5]: 0.015 to 0.25 µg/mL | MIC50 [6]: 0.5 µg/mL (≈ 1.27 µM) | MIC90 [6]: 1 µg/mL (≈ 2.54 µM) | MIC Range [6]: 0.015 to 4 µg/mL | MIC50 [7]: 0.06 µg/mL (≈ 0.152 µM) | MIC90 [7]: 1 µg/mL (≈ 2.54 µM) | MIC Range [7]: 0.015 to 2 µg/mL | MIC50 [8]: 0.25 µg/mL (≈ 0.635 µM) | MIC90 [8]: 1 µg/mL (≈ 2.54 µM) | MIC Range [8]: 0.015 to 2 µg/mL | MIC Range [9]: 0.03 to 0.12 µg/mL | MIC50 ([9]; read-out: MIC50): 0.06 µg/mL (≈ 0.152 µM) | MIC90 ([9]; read-out: MIC90): 0.06 µg/mL (≈ 0.152 µM) | MIC Range ([10]; Streptococcus pneumoniae (PISP, N = 2)): 0.06 to 0.12 µg/mL | MIC Range ([10]; Streptococcus pneumoniae (PRSP, N = 2)): 0.03 to 0.06 µg/mL | MIC50 [10, 32]: 0.06 µg/mL (≈ 0.152 µM) | MIC90 [10, 32]: 0.06 µg/mL (≈ 0.152 µM) | MIC Range [10, 32]: 0.015 to 0.5 µg/mL | MIC Range ([10]; Streptococcus pneumoniae (all phenotypes, N = 35)): 0.015 to 0.5 µg/mL | MIC50 ([10]; Streptococcus pneumoniae (all phenotypes, N = 35), read-out: MIC50): 0.06 µg/mL (≈ 0.152 µM) | MIC90 ([10]; Streptococcus pneumoniae (all phenotypes, N = 35), read-out: MIC90): 0.06 µg/mL (≈ 0.152 µM) | MIC Range [11]: 0.03 to 0.06 µg/mL | MIC50 ([11]; read-out: MIC50): 0.03 µg/mL (≈ 0.0762 µM) | MIC90 ([11]; read-out: MIC90): 0.06 µg/mL (≈ 0.152 µM) | MIC Range [12]: 0.015 to 0.25 µg/mL | MIC50 ([12]; read-out: MIC50): 0.03 µg/mL (≈ 0.0762 µM) | MIC90 ([12]; read-out: MIC90): 0.06 µg/mL (≈ 0.152 µM) | MIC Range [13]: 0.015 to 2 µg/mL | MIC50 ([13]; read-out: MIC50): 0.06 µg/mL (≈ 0.152 µM) | MIC90 ([13]; read-out: MIC90): 0.12 µg/mL (≈ 0.305 µM) | MIC50 [14]: 0.06 µg/mL (≈ 0.152 µM) | MIC90 [14]: 0.25 µg/mL (≈ 0.635 µM) | MIC50 [15]: 0.12 µg/mL (≈ 0.305 µM) | MIC90 [15]: 1 µg/mL (≈ 2.54 µM) | MIC Range [15]: 0.06 to 8 µg/mL | MIC Range [16, 33]: ≦0.004-0.03 μg/mL | MIC Range [16, 34]: ≦0.004-0.03 μg/mL | MIC Range [16, 35]: 0.008 to 0.03 µg/mL | MIC50 [16, 33]: 0.015 µg/mL (≈ 0.0381 µM) | MIC90 [16, 33]: 0.015 µg/mL (≈ 0.0381 µM) | MIC50 [16, 34]: 0.015 µg/mL (≈ 0.0381 µM) | MIC90 [16, 34]: 0.015 µg/mL (≈ 0.0381 µM) | MIC50 [16, 35]: 0.015 µg/mL (≈ 0.0381 µM) | MIC90 [16, 35]: 0.03 µg/mL (≈ 0.0762 µM) | MIC50 ([17]; Legionella pneumophila): 0.03 µg/mL (≈ 0.0762 µM) | MIC90 ([17]; Legionella pneumophila): 0.03 µg/mL (≈ 0.0762 µM) | MIC Range ([17]; Legionella pneumophila (N = 50)): 0.015 to 0.06 µg/mL | MIC50 [18]: 0.03 µg/mL (≈ 0.0762 µM) | MIC90 [18]: 0.03 µg/mL (≈ 0.0762 µM) | MIC Range [18]: 0.015 to 0.12 µg/mL | MIC50 [19]: 0.12 µg/mL (≈ 0.305 µM) | MIC90 [19]: 4 µg/mL (≈ 10.2 µM) | MIC90 ([20]; MRSA, S. aureus MRSA-CR, N 17, read-out: MIC90): 4 µg/mL | MIC90 ([20]; MRSA, S. aureus MRSA-CS, N 9, read-out: MIC90 (due to limited isolates, highest MIC value is given)): 0.06 µg/mL | MIC90 ([20]; MRSA, Staphylococcus aureus (MRSA-CR), isolates of studies 373, 433, 434, read-out: MIC90): 4 µg/mL | MIC90 ([20]; MSSA, S. aureus MSSA-CR, N 17, read-out: MIC90): 2 µg/mL | MIC90 ([20]; MSSA, S. aureus MSSA-CS, N 144, read-out: MIC90): 0.06 µg/mL | MIC90 ([20]; MSSA, Staphylococcus aureus (MSSA-CR), isolates of studies 373, 433, 434, read-out: MIC90): 2 µg/mL | MIC90 ([20]; Staphylococcus aureus (all phenotypes), isolates of studies 373, 433, 434, read-out: MIC90): 0.5 µg/mL | MIC90 ([21]; MRSE, S. epidermidis MRSE-CR, N 24, read-out: MIC90): 4 µg/mL | MIC90 ([21]; MRSE, S. epidermidis MRSE-CS, N 27, read-out: MIC90): 0.06 µg/mL | MIC90 ([21]; S. epidermidis MSSE-CR, N 10, read-out: MIC90): 1 µg/mL | MIC90 ([21]; S. epidermidis MSSE-CS, N 50, read-out: MIC90): 0.06 µg/mL | MIC90 ([21]; isolates of studies 373, 433, 434, read-out: MIC90): 0.5 µg/mL

Reference: patent US8415342B2, “Besifloxacin ophthalmic composition for the treatment or control of infection” (Bausch & Lomb Incorporated, priority 2008, dated 2013)
